Data reported in PubChem BioAssay AID328 (DTP/NCI, 2004).
Values joined by “and” are separate entries in the source; they are usually repeats but may differ in a detail not shown here. Equal values may be shown once. Toxic doses and inconclusive results are not listed.

System: BDF1 mice, P388 leukemia ip, median survival T/C
Assay: NCI In Vivo Anticancer Drug Screen. Data for tumor model P388 Leukemia (intraperitoneal) in B6D2F1 (BDF1) mice
Conditions: endpoint: median survival time, higher = longer survival
Summary of the method: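 Steps: implant the tumour, treat one group with compound and another with vehicle, record survival, then divide treated by control.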

[1] = dose: 0.78 mg/kg/injection, schedule: Q01DX009 (ip), vehicle: water
[2] = dose: 1.56 mg/kg/injection, schedule: Q01DX009 (ip), vehicle: water
[3] = dose: 3.12 mg/kg/injection, schedule: Q01DX009 (ip), vehicle: water
[4] = dose: 6.25 mg/kg/injection, schedule: Q01DX009 (ip), vehicle: water
[5] = dose: 12.5 mg/kg/injection, schedule: Q01DX009 (ip), vehicle: water
[6] = dose: 25.0 mg/kg/injection, schedule: Q01DX009 (ip), vehicle: water
[7] = dose: 100.0 mg/kg/injection, schedule: Q01DX001 (ip), vehicle: Klucel (hydroxypropylcellulose) (HPC)
[8] = dose: 200.0 mg/kg/injection, schedule: Q01DX001 (ip), vehicle: Klucel (hydroxypropylcellulose) (HPC)
[9] = dose: 400.0 mg/kg/injection, schedule: Q01DX001 (ip), vehicle: Klucel (hydroxypropylcellulose) (HPC)
[10] = dose: 100.0 mg/kg/injection, schedule: Q01DX009 (ip), vehicle: Klucel (hydroxypropylcellulose) (HPC)
[11] = dose: 200.0 mg/kg/injection, schedule: Q01DX009 (ip), vehicle: Klucel (hydroxypropylcellulose) (HPC)
[12] = dose: 400.0 mg/kg/injection, schedule: Q01DX009 (ip), vehicle: Klucel (hydroxypropylcellulose) (HPC)
[13] = dose: 12.5 mg/kg/injection, schedule: Q04DX003 (ip), vehicle: water
[14] = dose: 100.0 mg/kg/injection, schedule: Q04DX003 (ip), vehicle: saline with Tween-80
[15] = dose: 400.0 mg/kg/injection, schedule: Q04DX003 (ip), vehicle: saline with Tween-80

CN(c1ccccc1)c1nc(=O)c2cc3ccc(=O)oc3cc2o1
T/C (dose: 100.0 mg/kg/injection, schedule: Q04DX002 (ip), vehicle: saline with Tween-80): 99 % of control
T/C (dose: 200.0 mg/kg/injection, schedule: Q04DX002 (ip), vehicle: saline with Tween-80): 109 % of control
T/C (dose: 400.0 mg/kg/injection, schedule: Q04DX002 (ip), vehicle: saline with Tween-80): 100 % of control

O=[N+]([O-])c1ccc(Cl)c(S(=O)O)c1
T/C (dose: 75.0 mg/kg/injection, schedule: Q04DX003 (ip), vehicle: saline): 95 % of control
T/C (dose: 150.0 mg/kg/injection, schedule: Q04DX003 (ip), vehicle: saline): 100 % of control
T/C (dose: 300.0 mg/kg/injection, schedule: Q04DX003 (ip), vehicle: saline): 95 % of control

CC[CH2][Sn]([Cl])([Cl])[CH2]CC
T/C (dose: 0.1 mg/kg/injection, schedule: Q01DX009 (ip), vehicle: Klucel (hydroxypropylcellulose) (HPC)): 100 % of control
T/C (dose: 0.2 mg/kg/injection, schedule: Q01DX009 (ip), vehicle: Klucel (hydroxypropylcellulose) (HPC)): 113 % of control
T/C (dose: 0.25 mg/kg/injection, schedule: Q01DX009 (ip), vehicle: Klucel (hydroxypropylcellulose) (HPC)): 90 % of control
T/C (dose: 0.4 mg/kg/injection, schedule: Q01DX009 (ip), vehicle: Klucel (hydroxypropylcellulose) (HPC)): 113 % of control
T/C (dose: 0.5 mg/kg/injection, schedule: Q01DX009 (ip), vehicle: Klucel (hydroxypropylcellulose) (HPC)): 100 % of control
T/C (dose: 1.0 mg/kg/injection, schedule: Q01DX009 (ip), vehicle: Klucel (hydroxypropylcellulose) (HPC)): 113 % of control
T/C (dose: 2.0 mg/kg/injection, schedule: Q01DX009 (ip), vehicle: Klucel (hydroxypropylcellulose) (HPC)): 122 % of control

c1ccc(CNCCN(Cc2ccccc2)Cc2ccccc2)cc1
T/C [1]: 105 % of control
T/C [2]: 106 % of control
T/C [3]: 99 % of control and 101 % of control
T/C [4]: 93 % of control and 110 % of control
T/C [5]: 110 % of control and 115 % of control
T/C [6]: 101 % of control

C/C=C(/C)N(C(C)=O)N(C(C)=O)c1ccc([N+](=O)[O-])cc1[N+](=O)[O-]
T/C [7]: 109 % of control
T/C (dose: 100.0 mg/kg/injection, schedule: Q04DX003 (ip), vehicle: Klucel (hydroxypropylcellulose) (HPC)): 90 % of control
T/C [8]: 100 % of control
T/C (dose: 200.0 mg/kg/injection, schedule: Q04DX003 (ip), vehicle: Klucel (hydroxypropylcellulose) (HPC)): 104 % of control
T/C [9]: 109 % of control
T/C (dose: 400.0 mg/kg/injection, schedule: Q04DX003 (ip), vehicle: Klucel (hydroxypropylcellulose) (HPC)): 95 % of control

COc1ccc(/C(C#N)=C2C=C(Cl)/C(=N/O)C=C/2Cl)cc1
T/C [7]: 90 % of control
T/C [10]: 95 % of control
T/C [8]: 90 % of control
T/C [11]: 87 % of control
T/C [9]: 86 % of control
T/C [12]: 104 % of control

CCOC(=O)C1CN(c2ccccc2)C(=O)C1=O (stereo unspecified)
T/C (dose: 50.0 mg/kg/injection, schedule: Q01DX009 (ip), vehicle: Klucel (hydroxypropylcellulose) (HPC)): 112 % of control
T/C [10]: 118 % of control
T/C [11]: 110 % of control
T/C [12]: 110 % of control

NC(N)=Nc1ccc(C(=O)Oc2ccc([N+](=O)[O-])cc2CN2CCCCC2)cc1
T/C [1]: 101 % of control
T/C (dose: 0.78 mg/kg/injection, schedule: Q04DX003 (ip), vehicle: water): 100 % of control
T/C [2]: 93 % of control
T/C (dose: 1.56 mg/kg/injection, schedule: Q04DX003 (ip), vehicle: water): 105 % of control
T/C [3]: 100 % of control
T/C (dose: 3.12 mg/kg/injection, schedule: Q04DX003 (ip), vehicle: water): 113 % of control
T/C [4]: 104 % of control
T/C (dose: 6.25 mg/kg/injection, schedule: Q04DX003 (ip), vehicle: water): 104 % of control
T/C [13]: 95 % of control

Nc1ccccc1CCCC(=O)O
T/C (dose: 100.0 mg/kg/injection, schedule: Q04DX003 (ip), vehicle: saline): 100 % of control
T/C (dose: 200.0 mg/kg/injection, schedule: Q04DX003 (ip), vehicle: saline): 100 % of control
T/C (dose: 400.0 mg/kg/injection, schedule: Q04DX003 (ip), vehicle: saline): 104 % of control

O=C(CCN1CCCCC1)c1ccc(C(F)(F)F)cc1
T/C (dose: 0.39 mg/kg/injection, schedule: Q01DX009 (ip), vehicle: saline): 100 % of control and 116 % of control
T/C (dose: 0.78 mg/kg/injection, schedule: Q01DX009 (ip), vehicle: saline): 102 % of control and 116 % of control
T/C (dose: 1.56 mg/kg/injection, schedule: Q01DX009 (ip), vehicle: saline): 100 % of control
T/C (dose: 6.25 mg/kg/injection, schedule: Q01DX009 (ip), vehicle: saline with Tween-80): 99 % of control

COc1ccc(C=Nc2ccccc2)cc1
T/C [14]: 100 % of control
T/C (dose: 200.0 mg/kg/injection, schedule: Q04DX003 (ip), vehicle: saline with Tween-80): 100 % of control
T/C [15]: 100 % of control

O=[N+]([O-])c1ccc(-n2[nH]nnc2=S)cc1
T/C (dose: 50.0 mg/kg/injection, schedule: Q04DX003 (ip), vehicle: saline with Tween-80): 107 % of control
T/C [14]: 104 % of control
T/C [15]: 95 % of control

Cc1cn(C)c2nccnc12
T/C [5]: 100 % of control
T/C [13]: 102 % of control
T/C [6]: 107 % of control
T/C (dose: 25.0 mg/kg/injection, schedule: Q04DX003 (ip), vehicle: water): 96 % of control
T/C (dose: 50.0 mg/kg/injection, schedule: Q01DX009 (ip), vehicle: water): 98 % of control
T/C (dose: 50.0 mg/kg/injection, schedule: Q04DX003 (ip), vehicle: water): 112 % of control
T/C (dose: 100.0 mg/kg/injection, schedule: Q01DX009 (ip), vehicle: water): 100 % of control
T/C (dose: 100.0 mg/kg/injection, schedule: Q04DX003 (ip), vehicle: water): 117 % of control
T/C (dose: 200.0 mg/kg/injection, schedule: Q01DX009 (ip), vehicle: water): 104 % of control
T/C (dose: 200.0 mg/kg/injection, schedule: Q04DX003 (ip), vehicle: water): 98 % of control
T/C (dose: 300.0 mg/kg/injection, schedule: Q04DX003 (ip), vehicle: water): 94 % of control

O=C(O)C(CCCCC1CCCCC1)CCC1CCCCC1 (stereo unspecified)
T/C (dose: 50.0 mg/kg/injection, schedule: Q01DX001 (ip), vehicle: saline with Tween-80): 100 % of control
T/C (dose: 100.0 mg/kg/injection, schedule: Q01DX001 (ip), vehicle: saline with Tween-80): 100 % of control
T/C (dose: 200.0 mg/kg/injection, schedule: Q01DX001 (ip), vehicle: saline with Tween-80): 100 % of control

CCCC(=O)NC1=C(N2CC2)C(=O)C(NC(=O)CCC)=C(N2CC2)C1=O
T/C (dose: 0.44 mg/kg/injection, schedule: Q04DX003 (ip), vehicle: saline with Tween-80): 104 % of control
T/C (dose: 0.66 mg/kg/injection, schedule: Q04DX003 (ip), vehicle: saline with Tween-80): 109 % of control
T/C (dose: 1.0 mg/kg/injection, schedule: Q01DX009 (ip), vehicle: saline): 213 % of control
T/C (dose: 1.0 mg/kg/injection, schedule: Q04DX003 (ip), vehicle: saline with Tween-80): 122 % of control
T/C (dose: 1.5 mg/kg/injection, schedule: Q04DX003 (ip), vehicle: saline with Tween-80): 100 % of control
T/C (dose: 2.0 mg/kg/injection, schedule: Q01DX009 (ip), vehicle: saline): 200 % of control
T/C (dose: 2.5 mg/kg/injection, schedule: Q04DX003 (ip), vehicle: saline with Tween-80): 150 % of control
T/C (dose: 4.0 mg/kg/injection, schedule: Q01DX009 (ip), vehicle: saline): 285 % of control
T/C (dose: 5.0 mg/kg/injection, schedule: Q04DX003 (ip), vehicle: saline with Tween-80): 204 % of control
T/C (dose: 10.0 mg/kg/injection, schedule: Q04DX003 (ip), vehicle: saline with Tween-80): 250 % of control
